Assay results published in patent US12679878B2, “CRF2 receptor agonists and their use in therapy” (SANOFI, priority 2020, dated 2026).
Converted amounts (≈) assume the structure as drawn. Read-outs that look alike come from different tables or passages of the source. Starred links: 1 amine or outer side, 2 acyl side, 3 side chain; linkers in the order of their positions; H or OH if unused. Residues, ends and D or L forms follow the SMILES beside them. Groups on a side chain read outwards from the residue. *: point of attachment. C20 diacid = O=C(O)CCCCCCCCCCCCCCCCCCC(=O)*; C18 diacid = O=C(O)CCCCCCCCCCCCCCCCC(=O)*; γGlu = O=C(O)[C@H](CCC(=O)[*:2])N[*:1]; AEEA = NCCOCCOCC(=O)O

What was measured:
human CRF2α receptor = biological target: T1, human CRF2α receptor (Homo sapiens, UniProt Q13324); assay: cAMP agonism at human CRF2 α receptor in TeloHEAC cells (Example 7); assay type: cell-based; conditions: cAMP HTRF, TeloHEAC cells stably expressing human CRF2 α, 0% HSA; read-out: EC50 [nM], 0% HSA
T1 construct: expressed in transfected cells; host or cells: TeloHEAC
T1 sequence (Q13324 1-411): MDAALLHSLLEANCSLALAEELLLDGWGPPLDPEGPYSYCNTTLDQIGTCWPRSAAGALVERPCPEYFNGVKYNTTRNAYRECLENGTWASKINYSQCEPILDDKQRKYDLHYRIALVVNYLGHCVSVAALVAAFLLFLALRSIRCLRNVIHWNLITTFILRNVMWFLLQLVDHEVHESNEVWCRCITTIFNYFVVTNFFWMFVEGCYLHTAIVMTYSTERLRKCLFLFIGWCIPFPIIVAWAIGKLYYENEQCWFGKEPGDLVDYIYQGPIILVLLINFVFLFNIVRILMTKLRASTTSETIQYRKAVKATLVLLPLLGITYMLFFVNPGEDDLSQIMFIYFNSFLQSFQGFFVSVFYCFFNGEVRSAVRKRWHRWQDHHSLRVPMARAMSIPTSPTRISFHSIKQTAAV
In short: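 HTRF ratio 665/620 nm, read 1 h after lysis reagents, reports cAMP. Cells: thawed stocks, 2000/well, 30 min RT with compound in HBSS, 20 mM HEPES, 0 or 0.1% HSA, 2 mM IBMX. Activity normalised to UCN2 1000 nM = 100%; EC50 from half-maximal activation.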

[1] = Solubility in buffer systems by UPLC-UV (Example 13); assay type: physicochemical
Method: Prior to performing the solubility measurements, the purity of the compounds was determined through UPLC/MS. […] Therefore, solutions from solid samples were prepared in a buffer system with a concentration of 10 mg/mL compound based on the previously determined % purity.
UPLC-UV was performed after 1 hour of gentle agitation from the supernatant, which was obtained after 15 minutes of centrifugation at 2500 RCF (relative centrifugal acceleration). The solubility was determined by the comparison of the UV peak area of a 2 μL-injection of a buffered sample diluted 1:10 with a standard curve of a reference compound with known concentration. The different UV extinction coefficients of sample and reference compound were calculated based on the different amino acid sequences and considered in the concentration calculation.

rat CRF2R α receptor = assay: cAMP agonism at rat CRF2R α receptor in A7R5 rat aortic smooth muscle cells (Example 8); assay type: cell-based; conditions: cAMP HTRF, A7R5 rat aortic smooth muscle cell line, 0% HSA
In short: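 Thawed cryopreserved A7R5 cells in HBSS/20 mM HEPES (0 or 0.1% HSA) with 2 mM IBMX, 2000 cells/well, were exposed to compound for 30 min at room temperature. cAMP was read by HTRF (665/620 nm ratio) after 1 h with lysis reagents. Activity was normalised to 1000 nM urocortin 2 as 100%, and EC50 was taken as the concentration giving 50% of maximal activation.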

CRF1R receptor = biological target: T2, CRF1R receptor (Homo sapiens, UniProt P34998); assay: cAMP activity at anti-target CRF1R, CRF1R-overexpression CHO cell line (Example 9); assay type: cell-based; conditions: for EC50: 0% HSA
T2 construct: host or cells: CHO-K1 clone 2
T2 sequence (P34998 24-415): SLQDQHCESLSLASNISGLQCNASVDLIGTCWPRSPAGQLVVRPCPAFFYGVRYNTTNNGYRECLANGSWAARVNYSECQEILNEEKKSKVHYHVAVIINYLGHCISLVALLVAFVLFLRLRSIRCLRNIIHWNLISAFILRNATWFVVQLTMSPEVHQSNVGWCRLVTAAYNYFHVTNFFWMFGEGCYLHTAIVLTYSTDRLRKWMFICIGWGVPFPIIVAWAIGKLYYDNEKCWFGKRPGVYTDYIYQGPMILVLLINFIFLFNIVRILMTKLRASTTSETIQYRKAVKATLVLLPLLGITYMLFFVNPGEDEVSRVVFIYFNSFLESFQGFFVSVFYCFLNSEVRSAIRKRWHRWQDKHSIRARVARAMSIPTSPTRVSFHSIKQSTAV
In short: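 cAMP accumulation was read by HTRF after 30 min at room temperature of compound treatment. Cells were cryopreserved CHO cells overexpressing CRF1R, plated at 2000/well in IBMX (2 mM)-containing HBSS/HEPES buffer with 0 or 0.1% HSA. Activity was normalized to 1000 nM UCN2 as 100%.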

[2] = pH 7.4, Solubility in Buffer C [mg/ml]
[3] = CRF1R-overexpression CHO cell line
[4] = CRF1R-overexpression CHO cell line, read-out: Emax (%)

Compound: CC[C@H](C)[C@H](N)C(=O)N[C@H](C(=O)N[C@@H](CC(C)C)C(=O)N[C@@H](CO)C(=O)N[C@@H](CC(C)C)C(=O)N[C@@H](CC(=O)O)C(=O)N[C@H](C(=O)N1CCC[C@H]1C(=O)N[C@H](C(=O)N[C@@H](CCCCN)C(=O)N[C@@H](CC(C)C)C(=O)N[C@@H](CCCCNC(=O)COCCOCCNC(=O)COCCOCCNC(=O)CC[C@H](NC(=O)CCCCCCCCCCCCCCCCC(=O)O)C(=O)O)C(=O)N[C@@H](CCC(N)=O)C(=O)N[C@H](C(=O)N[C@@H](CC(C)C)C(=O)N[C@@H](CC(C)C)C(=O)N[C@@H](CCC(=O)O)C(=O)N[C@@H](CCC(N)=O)C(=O)N[C@@H](CCC(=O)O)C(=O)N[C@@H](CCCNC(=N)N)C(=O)N[C@@H](CCC(N)=O)C(=O)N[C@@H](CCCNC(=N)N)C(=O)N[C@@H](CCCCN)C(=O)N[C@@H](CCC(=O)O)C(=O)N[C@@H](CCCNC(=N)N)C(=O)N[C@@H](CCC(N)=O)C(=O)N[C@@H](CCC(N)=O)C(=O)N[C@@H](C)C(=O)N[C@@H](CCC(=O)O)C(=O)N[C@H](C(=O)N[C@@H](CC(N)=O)C(=O)N[C@@H](C)C(=O)N[C@@H](CCC(N)=O)C(=O)N[C@H](C(=O)N[C@@H](CC(C)C)C(=O)N[C@@H](C)C(=O)N[C@@H](CCC(N)=O)C(=O)N[C@H](C(N)=O)C(C)C)[C@@H](C)CC)[C@@H](C)O)[C@@H](C)CC)[C@@H](C)CC)C(C)C)C(C)C [compound 39] (H-IVLSLDVPIKLK([AEEA-AEEA-γGlu-C18 diacid])QILLEQERQRKERQQAETNAQILAQV-NH2)
- EC50 (human CRF2α receptor): 0.65 nM
- solubility at 1 h [1, 2]: 10300 µg/mL (≈ 2000 µM)
- EC50 (rat CRF2R α receptor): 2.04 nM
- EC50 (CRF1R receptor; [3]): > 1000 nM
- Emax (CRF1R receptor; [4]): 13.3%

Compound: CC[C@H](C)[C@H](N)C(=O)N[C@H](C(=O)N[C@@H](CC(C)C)C(=O)N[C@@H](CO)C(=O)N[C@@H](CC(C)C)C(=O)N[C@@H](CC(=O)O)C(=O)N[C@H](C(=O)N1CCC[C@H]1C(=O)N[C@H](C(=O)N[C@@H](CCCCN)C(=O)N[C@@H](CC(C)C)C(=O)N[C@@H](CCCCNC(=O)COCCOCCNC(=O)COCCOCCNC(=O)CC[C@H](NC(=O)CCCCCCCCCCCCCCCCC(=O)O)C(=O)O)C(=O)N[C@@H](CCC(N)=O)C(=O)N[C@H](C(=O)N[C@@H](CC(C)C)C(=O)N[C@@H](CC(C)C)C(=O)N[C@@H](CCC(=O)O)C(=O)N[C@@H](CCC(N)=O)C(=O)N[C@@H](C)C(=O)N[C@@H](CCCCN)C(=O)N[C@@H](CCC(N)=O)C(=O)N[C@@H](CCCCN)C(=O)N[C@@H](CCCCN)C(=O)N[C@@H](CC(C)C)C(=O)N[C@@H](CCCNC(=N)N)C(=O)N[C@@H](C)C(=O)N[C@@H](CCC(N)=O)C(=O)N[C@@H](C)C(=O)N[C@@H](CCC(=O)O)C(=O)N[C@H](C(=O)N[C@@H](CC(N)=O)C(=O)N[C@H](C(=O)N[C@@H](CCCNC(=N)N)C(=O)N[C@H](C(=O)N[C@@H](CC(C)C)C(=O)N[C@@H](CCC(=O)O)C(=O)N[C@@H](CCCNC(=N)N)C(=O)N[C@H](C(N)=O)C(C)C)[C@@H](C)CC)C(C)C)[C@@H](C)O)[C@@H](C)CC)[C@@H](C)CC)C(C)C)C(C)C [compound 43] (H-IVLSLDVPIKLK([AEEA-AEEA-γGlu-C18 diacid])QILLEQAKQKKLRAQAETNVRILERV-NH2; N-terminus assumed)
- EC50 (human CRF2α receptor): 1.9 nM
- solubility at 1 h [1, 2]: > 9800 µg/mL
- EC50 (rat CRF2R α receptor): 11.5 nM

Compound: CC[C@H](C)[C@H](NC(=O)[C@H](CCC(N)=O)NC(=O)[C@H](CCC(=O)O)NC(=O)[C@H](CC(C)C)NC(=O)[C@H](CC(C)C)NC(=O)[C@H](CCC(N)=O)NC(=O)[C@H](CCCCN)NC(=O)[C@H](CC(N)=O)NC(=O)[C@H](CCCCN)NC(=O)[C@H](CCC(=O)O)NC(=O)[C@H](C)NC(=O)[C@H](CCC(N)=O)NC(=O)[C@H](CCC(N)=O)NC(=O)[C@H](CCCNC(=N)N)NC(=O)[C@H](CCC(=O)O)NC(=O)[C@H](CCCCN)NC(=O)[C@H](CCCCN)NC(=O)[C@H](CCC(N)=O)NC(=O)[C@H](CCCCN)NC(=O)[C@H](CCC(N)=O)NC(=O)[C@H](CCC(N)=O)NC(=O)[C@H](CCCCN)NC(=O)[C@H](Cc1ccccc1)NC(=O)[C@H](CC(C)C)NC(=O)[C@@H](NC(=O)[C@H](CCC(N)=O)NC(=O)[C@H](CCCCNC(=O)COCCOCCNC(=O)COCCOCCNC(=O)CC[C@H](NC(=O)CCCCCCCCCCCCCCCCCCC(=O)O)C(=O)O)NC(=O)[C@@H](NC(=O)[C@H](CCCCN)NC(=O)[C@@H](NC(=O)[C@@H]1CCCN1C(=O)[C@@H](NC(=O)[C@H](CC(=O)O)NC(=O)[C@H](CC(C)C)NC(=O)[C@H](CO)NC(=O)[C@H](CC(C)C)NC(=O)[C@@H](NC(=O)[C@@H](N)Cc1ccccc1)[C@@H](C)O)C(C)C)[C@@H](C)O)[C@@H](C)CC)[C@@H](C)CC)C(N)=O [compound 58] (H-FTLSLDVPTKIK([AEEA-AEEA-γGlu-C20 diacid])QILFKQQKQKKERQQAEKNKQLLEQI-NH2; N-terminus assumed)
- EC50 (human CRF2α receptor): 0.28 nM
- solubility at 1 h ([1]; Buffer B: 100 mM acetate buffer, pH 4.5, 2.7 mg/ml m-cresol, target 10 mg/ml, read-out: Solubility in Buffer B): > 9500 µg/mL
- solubility at 1 h ([1]; Buffer C: 100 mM phosphate buffer, pH 7.4, target 10 mg/ml, read-out: Solubility in Buffer C): > 9400 µg/mL
- EC50 (rat CRF2R α receptor): 0.72 nM
- Emax (CRF1R receptor; CHO): 9.12%

Compound: CC[C@H](C)[C@H](NC(=O)[C@H](CCC(N)=O)NC(=O)[C@H](CCCCNC(=O)COCCOCCNC(=O)COCCOCCNC(=O)CC[C@H](NC(=O)CCCCCCCCCCCCCCCCCCC(=O)O)C(=O)O)NC(=O)[C@@H](NC(=O)[C@H](CCCCN)NC(=O)[C@@H](NC(=O)[C@@H]1CCCN1C(=O)[C@@H](NC(=O)[C@H](CC(=O)O)NC(=O)[C@H](CC(C)C)NC(=O)[C@H](CO)NC(=O)[C@H](CC(C)C)NC(=O)[C@@H](NC(=O)[C@@H](N)Cc1ccccc1)[C@@H](C)O)C(C)C)[C@@H](C)O)[C@@H](C)CC)C(=O)N[C@@H](CC(C)C)C(=O)N[C@@H](CC(C)C)C(=O)N[C@@H](CCCCN)C(=O)N[C@@H](CCC(N)=O)C(=O)N[C@@H](CCC(N)=O)C(=O)N[C@@H](CCCCN)C(=O)N[C@@H](CCC(N)=O)C(=O)N[C@@H](CCCCN)C(=O)N[C@@H](CCCCN)C(=O)N[C@@H](CCC(=O)O)C(=O)N[C@@H](CCCNC(=N)N)C(=O)N[C@@H](CCC(N)=O)C(=O)N[C@@H](CCC(N)=O)C(=O)N[C@@H](C)C(=O)N[C@@H](CCC(=O)O)C(=O)N[C@H](C(=O)N[C@@H](CC(N)=O)C(=O)N[C@@H](CCCCN)C(=O)N[C@@H](CCC(N)=O)C(=O)N[C@@H](CC(C)C)C(=O)N[C@@H](CC(C)C)C(=O)N[C@@H](CCC(=O)O)C(=O)N[C@@H](CCCNC(=N)N)C(=O)N[C@H](C(N)=O)C(C)C)[C@@H](C)O [compound 61] (H-FTLSLDVPTKIK([AEEA-AEEA-γGlu-C20 diacid])QILLKQQKQKKERQQAETNKQLLERV-NH2)
- EC50 (human CRF2α receptor): 0.38 nM
- solubility at 1 h ([1]; pH 4.5, Solubility in Buffer B [mg/ml]): > 10600 µg/mL
- solubility at 1 h [1, 2]: > 9500 µg/mL
- EC50 (rat CRF2R α receptor): 0.94 nM
- EC50 (CRF1R receptor; [3]): > 1000 nM
- Emax (CRF1R receptor; [4]): 3.31%
